Laboratory results: paper PMC7756392, “Syntheses of Thailandepsin B Pseudo‐Natural Products: Access to New Highly Potent HDAC Inhibitors via Late‐Stage Modification” (Chemistry (Weinheim an Der Bergstrasse, Germany), 2020)

Key:
hHDAC8 = target: T1, hHDAC8 (Homo sapiens, UniProt Q9BY41); test: ZMTFAL trypsin assay, HDAC8; type: biochemical
T1 sequence (Q9BY41 1-377): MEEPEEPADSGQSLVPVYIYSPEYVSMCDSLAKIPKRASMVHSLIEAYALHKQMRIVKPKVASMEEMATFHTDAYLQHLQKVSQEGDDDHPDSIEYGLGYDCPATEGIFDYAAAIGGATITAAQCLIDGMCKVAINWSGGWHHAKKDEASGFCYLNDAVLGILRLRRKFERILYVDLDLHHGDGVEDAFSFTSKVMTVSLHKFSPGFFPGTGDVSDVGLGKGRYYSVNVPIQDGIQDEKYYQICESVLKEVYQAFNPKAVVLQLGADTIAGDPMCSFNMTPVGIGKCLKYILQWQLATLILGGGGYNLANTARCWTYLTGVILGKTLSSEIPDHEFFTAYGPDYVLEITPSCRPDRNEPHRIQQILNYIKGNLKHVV
Experimental: (§1) [28] Assays for HDAC1/6 were prepared according to: B. Heltweg , J. Trapp , M. Jung , Methods 2005, 36, 332–337; assays for HDAC8 were prepared according to: J. Senger , J. Melesina , M. Marek , C. Romier , I. Oehme , O. Witt , W. Sippl , M. Jung , J. Med. Chem. 2016, 59, 1545–1555. […]
After […]
incubation (30 min at 37 °C) fluorescence signal (λex = 390 nm, λem = 460 nm) was measured on a BMG LABTECH POLARstar OPTIMA plate reader (BMG Labtechnologies, Germany).10 hHDAC8: Enzyme was obtained from cooperation partners (Romier).11 Assay was performed as described before. 22.5 µL of enzyme solution in assay buffer (15 mM Tris, pH 7.5, 50 mM KH2PO4, 10 mM KCl, 3 mM MgSO4·7H2O and 0.2 mM TCEP), increasing inhibitor concentrations in DMSO (2.5 μL) and 5 µL of ZMTFAL substrate solution ([…]) were incubated for 90 min at 37 °C in ½ AreaPlate-96 F microplates (PerkinElmer). 30 µL of stop solution (see HDAC1/6) were added. After incubation (30 min at 37 °C) fluorescence signal was […]

human recombinant HDAC1 = target: T2, human recombinant HDAC1 (Homo sapiens, UniProt Q13547); test: ZMAL trypsin assay, HDAC1; type: biochemical; conditions: ZMAL trypsin assay
T2 construct: purchased BPS Bioscience 50051
Experimental: as §1
hHDAC1/6: Activity assays were performed in OptiPlateTM-96 F black microplates (PerkinElmer). Commercial available enzymes (human recombinant HDAC1; BPS Bioscience, catalog no. 50051 and human recombinant HDAC6; BPS Bioscience, catalog no. 50006) were used. Total assay volume of 60 µL contains 42 µl of assay buffer (50 mM Tris -HCl, pH 8.0, 137 mM NaCl, 2.7 mM KCl, 1 mM MgCl2, 0.2 mM TCEP and 1 mg/mL bovine serum albumin), 10 µL of enzyme solution in assay buffer, 3 µL of increasing concentrations of inhibitors in DMSO and 5 μL of the fluorogenic substrate ZMAL (Z -(Ac)Lys-AMC) (126 μM). After incubation (90 min, 37 °C) 60 µL of stop solution, containing 5 μL Trichostatin A (TSA) (33 μM) and 10 μL trypsin (6 mg/mL) in trypsin buffer (Tris-HCl 50 mM, pH 8.0, NaCl 100 mM), were added. […]

T2 sequence (Q13547 whole entry): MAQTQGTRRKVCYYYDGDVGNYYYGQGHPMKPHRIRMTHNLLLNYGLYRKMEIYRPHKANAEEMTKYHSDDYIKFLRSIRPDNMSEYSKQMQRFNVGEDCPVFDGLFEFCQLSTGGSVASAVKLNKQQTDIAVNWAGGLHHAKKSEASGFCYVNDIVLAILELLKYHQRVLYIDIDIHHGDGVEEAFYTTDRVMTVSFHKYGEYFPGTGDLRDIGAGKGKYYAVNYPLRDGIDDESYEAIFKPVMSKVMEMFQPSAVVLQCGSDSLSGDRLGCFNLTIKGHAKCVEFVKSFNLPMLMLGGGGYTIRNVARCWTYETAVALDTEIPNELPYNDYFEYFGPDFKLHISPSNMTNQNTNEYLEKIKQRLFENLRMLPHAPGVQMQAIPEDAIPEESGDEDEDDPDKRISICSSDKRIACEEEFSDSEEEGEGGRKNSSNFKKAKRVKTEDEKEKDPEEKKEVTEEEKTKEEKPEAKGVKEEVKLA

Row | inhibition at 10 µM (hHDAC8) | IC50 (human recombinant HDAC1) | Structure (SMILES)
1 | 22% | 12.3 ± 1.6 nM | CCCC[C@H]1NC(=O)C[C@@H](/C=C/CCSC(C)=O)OC(=O)C[C@H](O)[C@@H]([C@@H](C)CC)NC(=O)[C@@H](C)NC1=O [compound 33]
2 | 21% | 28 ± 2 nM | CCCC[C@H]1NC(=O)C[C@@H](/C=C/CCC(=O)NO)OC(=O)C[C@H](O)[C@@H]([C@@H](C)CC)NC(=O)[C@@H](C)NC1=O [compound 8]

Row | Structure (SMILES) | inhibition at 10 µM (hHDAC8) | IC50 (human recombinant HDAC1)
3 | CCCC[C@H]1NC(=O)C[C@@H](/C=C/CCSC(C)=O)OC(=O)C[C@H](O[Si](C)(C)C(C)(C)C)[C@@H]([C@@H](C)CC)NC(=O)[C@@H](C)NC1=O [compound 32] | 30% | 18700 ± 8900 nM
